The record followed here is US20110172163A1, “Novel Protease Inhibitors” (QUEENSLAND UNIVERSITY OF TECHNOLOGY, priority 2008, published 2011).

Structures are written as SMILES. Like-named read-outs stand apart in the source and are kept apart here. Bridge positions count the residues as written; N and C are the ends. Peptide text beside a SMILES is read from it.

One series deals with KLK14 (Homo sapiens, UniProt Q9P0G3). Description: Protein proteolysis: fibrinogen digestion by KLK14. Type of series: biochemical. The conditions noted are these: up to a concentration of 2 μM.
Sequence of KLK14 (Q9P0G3 35-267 limits assumed): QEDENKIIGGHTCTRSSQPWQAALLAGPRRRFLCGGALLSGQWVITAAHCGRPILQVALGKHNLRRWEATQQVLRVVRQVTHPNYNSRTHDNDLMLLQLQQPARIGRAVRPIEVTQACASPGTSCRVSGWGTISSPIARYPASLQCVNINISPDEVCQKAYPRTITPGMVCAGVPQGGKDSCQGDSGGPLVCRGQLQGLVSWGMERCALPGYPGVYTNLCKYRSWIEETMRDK
The target of the next series is KLK4 (Homo sapiens, UniProt Q9Y5K2). Briefly: Inhibitor kinetics: KLK4 amidolytic activity with peptide-pNA substrates. Type of series: biochemical. Further details: pro-region of PSA (KLK3), replacing the native KLK4 pro-region (N, cleaved yes); made in house. As for the experimental part: Human recombinant KLK4 was expressed in E. coli using a previously described chimeric KLK4 plasmid construct where the native pro-region was replaced with the pro-region of PSA, enabling autoactivation. Protein was expressed as inclusion bodies which were isolated and solubilised as described previously to yield 90% pure KLK4. Protein refolding was performed by dilution into 100 volumes of refolding buffer I (2 M urea, 0.1M NaCl, 5 mM GSH, 0.5 mM GSSG, 10 mM benzamidine, 50 mM tris HCl pH 8.0, 2 mM CaCl2) over 44 hours before further dilution into 3 volumes refolding buffer II (refolding buffer I with 0.5 M urea 0.5 mM GSH, 0.05 mM GSSG, 2 mM CaCl2) over another 24 hours. Dialysis was performed as previously described (with additional 2 mM CaCl2 to reduce aggregation) before concentration using UNO sphere Q (Biorad) eluting with tris buffered saline (pH 7.5)/2 mM CaCl2. Subsequently, the material was purified to apparent homogeneity (according to coomassie blue stained SDS PAGE) by gel filtration using Sephacryl S-200 (GE Health Care) pre-equilibrated with 50 mM Tris-HCl pH 7.5, 20 mM NaCl and 2 mM CaCl2.
Sequence of KLK4 (Q9Y5K2 31-254): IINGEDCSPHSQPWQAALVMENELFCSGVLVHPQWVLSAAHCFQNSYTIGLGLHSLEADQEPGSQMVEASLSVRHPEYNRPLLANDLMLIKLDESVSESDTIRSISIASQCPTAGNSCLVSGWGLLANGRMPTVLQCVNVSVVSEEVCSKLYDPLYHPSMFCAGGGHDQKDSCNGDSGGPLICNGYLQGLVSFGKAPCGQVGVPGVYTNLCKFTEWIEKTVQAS
All enzymes and substrates were obtained from Sigma Chemicals if not otherwise specified. Bacterially expressed human KLK4 (37 ng), bovine β-trypsin (20 ng), bovine thrombin (20 ng), bovine α-chymotrypsin (0.5 μg), protease (0.5 μg; Streptomyces griseus type XIV), bovine plasminogen (0.5 μg), and human matriptase (30 ng; R&D Systems) were incubated with various concentrations of inhibitors in 200 μL assay buffer for 10 minutes prior to initiation by the addition of 100 μL of 0.3 mM of peptide-pNA substrates (FVQR-pNA: KLK4; BAPNA: trypsin, (Streptomyces griseus Type XIV Protease and bovine plasma plasminogen); Bz-Phe-Val-Arg-pNA: thrombin and matriptase; Trp-pNA: α-chymotrypsin; Leu-pNA: (Streptomyces griseus Type XIV Protease and bovine plasma plasminogen). The release of pNa moiety was monitored as described above for 7 minutes with each point being the average of three independent triplicate reactions. IC50 was determined using the Prism 5 software suite (GraphPad software Inc.).

A short description of series [1]: Stability of SFTI variants in contact with prostate cancer cells in vitro. The conditions noted are these: for half-life at 1 μM: RPMI 1640 with 10% fetal calf serum, read-out: t1/2 of residual inhibitory activity (converted). Type of series: in vitro ADME. As for the experimental part: Cell monolayers of LNCaP, 22Rv1 and PC3 cells were established in RPMI 1640 medium containing 10% fetal calf serum. Each cell line was treated +/−1 μM SFTI-FCQR contained in 4.0 mL RPMI media (as above) with a vehicle control to account for inhibition by intrinsic media factors. 25 μL samples of media were taken at 0, 24, 48, 72, 96 and 120 hrs timepoints. Media samples were boiled at 97° C. for 15 min, centrifuged at 14,000 rpm for 5 min to remove cellular debris and precipitated protein. Residual SFTI-FCQR inhibitory activity in the medium was determined against recombinant KLK4 using FVQR-pNA as a peptide substrate as above using 15ng KLK4 and 30 nmol FVQR-pNA with 2.5 μL and […] of media+/−SFTI-FCQR added from each treatment.

In the next series the target is T1, trypsin (Bos taurus, UniProt P00760).
T1 construct: purchased Sigma Chemicals
T1 sequence (P00760 18-246 limits assumed): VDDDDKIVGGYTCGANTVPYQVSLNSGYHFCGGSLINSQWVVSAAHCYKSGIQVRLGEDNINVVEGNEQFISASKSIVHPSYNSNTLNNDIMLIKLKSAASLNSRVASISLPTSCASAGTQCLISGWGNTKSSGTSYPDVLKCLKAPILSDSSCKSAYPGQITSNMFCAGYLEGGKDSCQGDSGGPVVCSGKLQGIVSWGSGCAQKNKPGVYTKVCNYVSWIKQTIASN
Briefly: Protein proteolysis: fibrinogen digestion by trypsin (SDS-PAGE). Type of series: biochemical, bovine. The note with it: up to a concentration of 2 μM. As for the experimental part: Fibrinogen was solubilised in assay buffer to a final concentration of 1 mg/ml and digested with KLK4 (+/−inhibitor) over a period of 90 minutes at 37° C. Typically assays consisted of 5 μM protein substrate and 2.5 nM KLK4 protein or 1 nM trypsin made up to a final volume of 8 μl with assay buffer. Proteolysis was initiated by addition of KLK4 and terminated by addition of SDS PAGE sample buffer and heat denaturation at 100° C. for 5 minutes. Hydrolysis products were resolved on 10% SDS PAGE gels and compared with incubations terminated immediately after initiation (time 0), and substrate proteins incubated in assay buffer for 90 minutes in the absence of KLK4 or 4-16 mins with trypsin.

For another series, the target named is KLK5 (Homo sapiens, UniProt Q9Y337). Description: Protein proteolysis: fibrinogen digestion by KLK5. Type of series: biochemical. The note with it: up to a concentration of 2 μM.
Sequence of KLK5 (Q9Y337 23-293): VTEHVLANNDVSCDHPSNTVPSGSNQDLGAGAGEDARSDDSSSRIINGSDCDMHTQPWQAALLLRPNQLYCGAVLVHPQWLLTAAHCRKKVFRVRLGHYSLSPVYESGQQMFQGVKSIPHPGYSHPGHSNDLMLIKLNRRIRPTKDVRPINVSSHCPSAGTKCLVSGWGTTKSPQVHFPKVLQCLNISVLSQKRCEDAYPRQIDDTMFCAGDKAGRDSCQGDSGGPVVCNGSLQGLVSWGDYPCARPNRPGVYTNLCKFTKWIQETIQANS

For the compound `CC[C@H](C)[C@@H]1NC(=O)[C@@H]2CCCN2C(=O)[C@@H]2CCCN2C(=O)[C@H]([C@@H](C)CC)NC(=O)[C@H](CO)NC(=O)[C@H](CCCNC(=N)N)NC(=O)[C@H](CCC(N)=O)NC(=O)[C@@H]2CSSC[C@H](NC1=O)C(=O)N[C@@H](Cc1ccccc1)C(=O)N1CCC[C@H]1C(=O)N[C@@H](CC(=O)O)C(=O)NCC(=O)N[C@@H](Cc1ccccc1)C(=O)N2` [SFTI-FCQR] (cyclo(GFCQRSIPPICFPD); disulfide 3-11), at KLK14, the “inhibition of KLK14 digestion of fibrinogen” value is “no inhibition”. The half-inhibitory concentration (IC50) (usually the concentration that inhibits the measured activity by half) on KLK4 turned out to be 7.97 ± 1.08 nM. Besides, the inhibition constant (Ki) (as a rule, the dissociation constant of the complex between target and ligand, obtained from inhibition or displacement) at KLK4 was found to be 3.59 ± 1.08 nM. In series [1] (1:5 dilution of supernatant, after a week of contact with prostate cancer cells), the “residual inhibition of recombinant KLK4 by tissue culture supernatant” value was “complete inhibition”. Besides, the half-life at 1 μM in series [1] (22Rv1 cell monolayers, 1 μM incubated with 22RV1 cells) is 117 h; in series [1] (LNCaP cell monolayers, 1 μM incubated with LNCaP cells), 119 h; in series [1] (PC3 cell monolayers, 1 μM incubated with PC3 cells), 89 h. Besides, the “inhibition of tryptic digestion of fibrinogen” value against trypsin is “no inhibition”. Besides, the “inhibition of KLK5 digestion of fibrinogen” value against KLK5 is “no inhibition”.
